Results: patent US20240368120A1 (Terns Pharmaceuticals, Inc., priority 2023, published 2024)

What was measured:
[1] = Rat pharmacokinetics, oral dosing; type: in vivo, Sprague-Dawley rats; conditions: male, Sprague-Dawley, oral dosing at 3 mg/kg, plasma; for half-life: read-out: Rat T1/2
human GLP-1R receptor = target: T1, human GLP-1R receptor (Homo sapiens, UniProt P43220); test: GLP-1R low expression cell assay (cAMP TR-FRET, CHO-K1_hGLP-1Rlow_clone10 cells); type: cell-based; conditions: for EC50: cAMP TR-FRET, 30 min at 25° C.; for Emax: maximum activation relative to control GLP-1 peptide agonist
T1 construct: expressed in transfected cells
In short: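 CHO-K1 cells stably expressing low surface human GLP-1R (clone10), 1,000 cells/well, exposed to 10-point 3-fold compound dilutions for 30 min at 25 °C. cAMP measured by TR-FRET (Eu-cAMP tracer/ULight-anti-cAMP, 15 min). EC50 from Hill fit of duplicate percent activation relative to a parallel GLP-1 control agonist.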

T1 sequence (P43220 24-463): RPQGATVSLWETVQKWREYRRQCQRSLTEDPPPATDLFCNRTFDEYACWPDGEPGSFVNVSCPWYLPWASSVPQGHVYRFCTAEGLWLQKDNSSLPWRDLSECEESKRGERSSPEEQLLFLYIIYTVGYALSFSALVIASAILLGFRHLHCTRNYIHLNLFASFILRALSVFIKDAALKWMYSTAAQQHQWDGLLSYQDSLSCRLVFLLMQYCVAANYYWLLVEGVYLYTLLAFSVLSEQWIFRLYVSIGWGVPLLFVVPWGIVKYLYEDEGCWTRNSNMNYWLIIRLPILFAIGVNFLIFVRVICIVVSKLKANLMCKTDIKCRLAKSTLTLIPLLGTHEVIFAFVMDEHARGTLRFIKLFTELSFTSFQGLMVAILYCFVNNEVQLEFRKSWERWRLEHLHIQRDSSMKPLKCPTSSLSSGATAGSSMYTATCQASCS

SMILES	Cmax [1] [ng/mL]	half-life [1] [h]	bioavailability [1] [%]	EC50 (human GLP-1R receptor) [nM]	Emax (human GLP-1R receptor) [%]	AUC [1] [ng·h/mL]
CC(C)Oc1cc(C(=O)O)cc2c1nc(CN1CCC(c3cccc(OCc4ccc(C#N)cc4F)n3)CC1)n2Cc1cncs1 [Compound 73, 2-((4-(6-((4-Cyano-2-fluorobenzyl)oxy)pyridin-2-yl)piperidin-1-yl)methyl)-4-isopropoxy-1-(thiazol-5-ylmethyl)-1H-benzo[d]imidazole-6-carboxylic acid]	< 500	< 1.5	< 25	< 10	> 85	< 500
C[C@@]1(c2ccc(Cl)cn2)Oc2cccc(C3CCN(Cc4nc5c(OC6CC6)cc(C(=O)O)cc5n4Cc4cncs4)CC3)c2O1 [Compound 7, (R)-2-((4-(2-(5-chloropyridin-2-yl)-2-methylbenzo[d][1,3]dioxol-4-yl)piperidin-1-yl)methyl)-4-cyclopropoxy-1-(thiazol-5-ylmethyl)-1H-benzo[d]imidazole-6-carboxylic acid]	< 500	≥ 2.5	< 25	10 to 100	> 85	< 500
COc1cc(C(F)(F)F)ccc1COc1cccc(C2CCN(Cc3nc4c(OC(F)F)cc(C(=O)O)cc4n3C)CC2)n1 [Compound 154, 4-(Difluoromethoxy)-2-((4-(6-((2-methoxy-4-(trifluoromethyl)benzyl)oxy)pyridin-2-yl)piperidin-1-yl)methyl)-1-methyl-1H-benzo[d]imidazole-6-carboxylic acid]	> 5000	1.5 to 2.5	50 to 85	< 10	> 85	–
COc1cc(C(=O)O)cc2c1nc(CN1CCC(c3cccc4c3O[C@@](C)(c3ccc(Cl)cn3)O4)CC1)n2C [Compound 85, (S)-2-((4-(2-(5-Chloropyridin-2-yl)-2-methylbenzo[d][1,3]dioxol-4-yl)piperidin-1-yl)methyl)-4-methoxy-1-methyl-1H-benzo[d]imidazole-6-carboxylic acid]	1000 to 2000	1.5 to 2.5	25 to 50	< 10	> 85	2500 to 10000
C[C@]1(c2ccc(Cl)cn2)Oc2cccc(C3CCN(Cc4nc5c(OCC6COC6)cc(C(=O)O)cc5n4C[C@@H]4CCO4)CC3)c2O1 [Compound 77, 2-((4-((S)-2-(5-chloropyridin-2-yl)-2-methylbenzo[d][1,3]dioxol-4-yl)piperidin-1-yl)methyl)-1-(((S)-oxetan-2-yl)methyl)-4-(oxetan-3-ylmethoxy)-1H-benzo[d]imidazole-6-carboxylic acid]	< 500	–	< 25	< 10	> 85	< 500
Cn1c(CN2CCC(c3cccc(OCc4ccc(C#N)cc4F)c3)CC2)nc2c(OC(F)F)cc(C(=O)O)cc21 [Compound 111, 2-((4-(3-((4-Cyano-2-fluorobenzyl)oxy)phenyl)piperidin-1-yl)methyl)-4-(difluoromethoxy)-1-methyl-1H-benzo[d]imidazole-6-carboxylic acid]	> 5000	1.5 to 2.5	> 85	100 to 1000	> 85	–

Continued, values first:

Cmax [1] [ng/mL]	half-life [1] [h]	bioavailability [1] [%]	EC50 (human GLP-1R receptor) [nM]	Emax (human GLP-1R receptor) [%]	AUC [1] [ng·h/mL]	SMILES
2000 to 5000	≥ 2.5	> 85	100 to 1000	> 85	–	Cn1c(CN2CCC(c3cccc4c3OC[C@@H](c3ccc(C#N)cc3F)O4)CC2)nc2c(OC(F)F)cc(C(=O)O)cc21 [Compound 300, (R)-2-((4-(2-(4-Cyano-2-fluorophenyl)-2,3-dihydrobenzo[b][1,4]dioxin-5-yl)piperidin-1-yl)methyl)-4-(difluoromethoxy)-1-methyl-1H-benzo[d]imidazole-6-carboxylic acid]
1000 to 2000	≥ 2.5	25 to 50	< 10	> 85	500 to 2500	CCOc1cc(C(=O)O)cc2c1nc(CN1CCC(c3cccc(OCc4ccc(C#N)cc4F)n3)CC1)n2C [Compound 298, 2-((4-(6-((4-Cyano-2-fluorobenzyl)oxy)pyridin-2-yl)piperidin-1-yl)methyl)-4-ethoxy-1-methyl-1H-benzo[d]imidazole-6-carboxylic acid]
> 5000	≥ 2.5	> 85	< 10	> 85	–	COc1cc(Cl)ccc1COc1cccc(C2CCN(Cc3nc4c(OC(F)F)cc(C(=O)O)cc4n3C)CC2)n1 [Compound 226, 2-((4-(6-((4-Chloro-2-methoxybenzyl)oxy)pyridin-2-yl)piperidin-1-yl)methyl)-4-(difluoromethoxy)-1-methyl-1H-benzo[d]imidazole-6-carboxylic acid]
2000 to 5000	1.5 to 2.5	50 to 85	< 10	> 85	–	Cn1c(CN2CCC(c3cccc(OCc4ccc(Cl)c5ccoc45)n3)CC2)nc2c(OC(F)F)cc(C(=O)O)cc21 [Compound 237, 2-((4-(6-((4-Chlorobenzofuran-7-yl)methoxy)pyridin-2-yl)piperidin-1-yl)methyl)-4-(difluoromethoxy)-1-methyl-1H-benzo[d]imidazole-6-carboxylic acid]
< 500	< 1.5	25 to 50	100 to 1000	–	500 to 2500	Cn1c(CN2CCC(c3cccc4c3OC(c3ccc(Cl)cc3F)C=C4)CC2)nc2c(OC(F)F)cc(C(=O)O)cc21 (single isomer, unassigned) [Compound 176]
